Laboratory results published in PMC8940841, “A metabolically stable PET tracer for imaging synaptic vesicle protein 2A: synthesis and preclinical characterization of [^18F]SDM-16” (European Journal of Nuclear Medicine and Molecular Imaging, 2021).

What was measured:
[1] = Plasma radiometabolite analysis during PET scans; type: in vivo, rhesus monkeys
Method: Arterial blood samples were collected during the PET scans to measure the radioactivity in plasma for generation of the metabolite-corrected arterial plasma input function. Plasma radiometabolite analysis was performed using the column-switching method, following a published protocol. Briefly, arterial blood samples were collected at 3-, 8-, 15-, 30-, 60-, 90-, 120-, and 180-min post-injection (p. i.), treated with urea (8 M), filtered, and injected onto a self-packed short column (4.6 × 19 mm) eluting with 1% MeCN in water at a flow rate of 2 mL/min. The sample was then back flushed onto a Gemini-NX column (5 μm, 4.6 mm × 250 mm) eluting with 40% MeCN/60% 0.1 M ammonium formate (pH 6.4) at a flow rate of 1.2 mL/min. The eluent was fraction-collected using an automated spectrum chromatography CF-1 fraction collector. Activity in the whole blood, plasma, filtrated plasma-urea mix, filters, and HPLC fractions were counted with automatic gamma well-counter (Wizard 2, PerkinElmer). The sample recovery rate, extraction efficiency, and HPLC fraction recovery were monitored. The unmetabolized [^18F]SDM-16 parent fraction was determined as the ratio of the sum of radioactivity in fractions containing the parent compound to the total amount of radioactivity collected and fitted with inverted Gamma4 approaches.
[^18F]SDM-16 had higher metabolite-corrected plasma SUV than the other SV2A radiotracers, indicating slower plasma clearance and higher metabolic stability (Fig. 2a). Whole-blood and plasma-input functions were highly consistent between the two animals, with a stable plasma to whole-blood ratio of 0.93 ± 0.13 over the entire 180-min acquisition period (Fig. S1).

[2] = Radiation dosimetry from whole-body PET biodistribution; type: in vivo, rhesus monkeys; details: for maximum permissible single-study dosage: urinary bladder wall critical organ, 21 CFR 361.1
Method: Two whole-body biodistribution studies were performed in two rhesus monkeys (9.4 kg female and 17.0 kg male) to estimate human organ radiation dosimetry. Scans were carried out on a Biograph mCT (hybrid PET/CT, Siemens Medical Systems, Knoxville, TN) scanner following i.v. injections of 187.6 MBq (5.1 mCi) and 173.9 MBq (4.7 mCi) [^18F]SDM-16, and mass doses of 0.27 µg and 0.24 µg at time of injection, respectively. Monkeys were scanned for about 4 h in a sequence of 22–24 passes from top of the head to the mid-thigh. Scans were reconstructed and visually inspected for organ activity concentrations exceeding background level. The organs included were the brain, heart, liver, gall bladder, spleen, kidneys, and urinary bladder contents. Regions of interest were delineated on these organs, and mean activity values were computed to form TACs.
Within-pass decay correction was removed to reflect the actual activity in each organ, and cumulative activity (Bq^.h/cm^3) computed by integration of the data from the scan. The tail portions beyond the end of the scan were extrapolated assuming only physical decay of the tracer. These values were multiplied by the organ volumes of a standard 55-kg adult female reference and 70-kg adult male mathematical phantom, and then normalized to injected activity to obtain organ residence times (N, h). Final values were then entered into the OLINDA software to obtain absorbed doses in all organs, which were computed with different voiding assumptions.

**Q.** Which results are given for `Cc1nccn1CN1C[C@@H](c2cc(F)cc([18F])c2)CC1=O` [[^18F]SDM-16, (R)-4-(3-fluoro-5-(fluoro-^18F)phenyl)-1-((2-methyl-1H-imidazol-1-yl)methyl)pyrrolidin-2-one]?
**A.** parent fraction in plasma ([1]; 30 min p.i.): 89 ± 5%; parent fraction in plasma ([1]; 120 min p.i.): 80 ± 7%; plasma to whole-blood ratio ([1]; over 180-min acquisition): 0.93 ± 0.13; total ED of a single-study dosage ([2]; 185 MBq (5 mCi)): 3.9 mSv; mean organ radiation dose estimate ([2]; Adrenals, adult female phantom): 0.0157 mGv/MBq; mean organ radiation dose estimate ([2]; Adrenals, adult male phantom): 0.0135 mGv/MBq; mean organ radiation dose estimate ([2]; Brain, adult female phantom): 0.1032 mGv/MBq; mean organ radiation dose estimate ([2]; Brain, adult male phantom): 0.0732 mGv/MBq; mean organ radiation dose estimate ([2]; Breasts, adult female phantom): 0.0087 mGv/MBq; mean organ radiation dose estimate ([2]; Breasts, adult male phantom): 0.0073 mGv/MBq; average residence time N ([2]; Gall Bladder, Female): 0.015 h; average residence time N ([2]; Gall Bladder, Male): 0.021 h; mean organ radiation dose estimate ([2]; Gallbladder Wall, adult female phantom): 0.0441 mGv/MBq; mean organ radiation dose estimate ([2]; Gallbladder Wall, adult male phantom): 0.0484 mGv/MBq; mean organ radiation dose estimate ([2]; Heart Wall, adult female phantom): 0.0158 mGv/MBq; mean organ radiation dose estimate ([2]; Heart Wall, adult male phantom): 0.0137 mGv/MBq; average residence time N ([2]; Heart, Female): 0.015 h; average residence time N ([2]; Heart, Male): 0.017 h; mean organ radiation dose estimate ([2]; Kidneys, adult female phantom): 0.0454 mGv/MBq; mean organ radiation dose estimate ([2]; Kidneys, adult male phantom): 0.0478 mGv/MBq; mean organ radiation dose estimate ([2]; LLI Wall, adult female phantom): 0.0145 mGv/MBq; mean organ radiation dose estimate ([2]; LLI Wall, adult male phantom): 0.0114 mGv/MBq; mean organ radiation dose estimate ([2]; Liver, adult female phantom): 0.0538 mGv/MBq; mean organ radiation dose estimate ([2]; Liver, adult male phantom): 0.0454 mGv/MBq; mean organ radiation dose estimate ([2]; Lungs, adult female phantom): 0.0116 mGv/MBq; mean organ radiation dose estimate ([2]; Lungs, adult male phantom): 0.0096 mGv/MBq; mean organ radiation dose estimate ([2]; Muscle, adult female phantom): 0.0110 mGv/MBq; mean organ radiation dose estimate ([2]; Muscle, adult male phantom): 0.0093 mGv/MBq; mean organ radiation dose estimate ([2]; Osteogenic Cells, adult female phantom): 0.0188 mGv/MBq; mean organ radiation dose estimate ([2]; Osteogenic Cells, adult male phantom): 0.0147 mGv/MBq; mean organ radiation dose estimate ([2]; Ovaries, adult female phantom): 0.0147 mGv/MBq; mean organ radiation dose estimate ([2]; Pancreas, adult female phantom): 0.0154 mGv/MBq; mean organ radiation dose estimate ([2]; Pancreas, adult male phantom): 0.0134 mGv/MBq; mean organ radiation dose estimate ([2]; Red Marrow, adult female phantom): 0.0120 mGv/MBq; mean organ radiation dose estimate ([2]; Red Marrow, adult male phantom): 0.0098 mGv/MBq; average residence time N ([2]; Remainder, Female): 1.504 h; average residence time N ([2]; Remainder, Male): 1.608 h; mean organ radiation dose estimate ([2]; Skin, adult female phantom): 0.0087 mGv/MBq; mean organ radiation dose estimate ([2]; Skin, adult male phantom): 0.0073 mGv/MBq; mean organ radiation dose estimate ([2]; Small Intestine, adult female phantom): 0.0130 mGv/MBq; mean organ radiation dose estimate ([2]; Small Intestine, adult male phantom): 0.0116 mGv/MBq; mean organ radiation dose estimate ([2]; Spleen, adult female phantom): 0.0122 mGv/MBq; mean organ radiation dose estimate ([2]; Spleen, adult male phantom): 0.0104 mGv/MBq; mean organ radiation dose estimate ([2]; Stomach Wall, adult female phantom): 0.0125 mGv/MBq; mean organ radiation dose estimate ([2]; Stomach Wall, adult male phantom): 0.0107 mGv/MBq; average residence time N ([2]; Sum, Female): 2.621 h; average residence time N ([2]; Sum, Male): 2.621 h; mean organ radiation dose estimate ([2]; Testes, adult male phantom): 0.0090 mGv/MBq; mean organ radiation dose estimate ([2]; Thymus, adult female phantom): 0.0107 mGv/MBq; mean organ radiation dose estimate ([2]; Thymus, adult male phantom): 0.0089 mGv/MBq; mean organ radiation dose estimate ([2]; Thyroid, adult female phantom): 0.0101 mGv/MBq; mean organ radiation dose estimate ([2]; Thyroid, adult male phantom): 0.0098 mGv/MBq; mean organ radiation dose estimate ([2]; Total Body, adult female phantom): 0.0146 mGv/MBq; mean organ radiation dose estimate ([2]; Total Body, adult male phantom): 0.0119 mGv/MBq; mean organ radiation dose estimate ([2]; ULI Wall, adult female phantom): 0.0141 mGv/MBq; mean organ radiation dose estimate ([2]; ULI Wall, adult male phantom): 0.0119 mGv/MBq; mean organ radiation dose estimate ([2]; Urinary Bladder Wall, adult female phantom): 0.1368 mGv/MBq; mean organ radiation dose estimate ([2]; Urinary Bladder Wall, adult male phantom): 0.0762 mGv/MBq; average residence time N ([2]; Urinary Bladder, Female): 0.193 h; average residence time N ([2]; Urinary Bladder, Male): 0.143 h; mean organ radiation dose estimate ([2]; Uterus, adult female phantom): 0.0180 mGv/MBq; Effective Dose ([2]; adult female phantom): 0.0211 mGv/MBq; Effective Dose Equivalent ([2]; adult female phantom): 0.0316 mGv/MBq; Effective Dose ([2]; adult male phantom): 0.0156 mGv/MBq; Effective Dose Equivalent ([2]; adult male phantom): 0.0246 mGv/MBq; absorbed dose ([2]; brain, female): 0.1032 mGy/MBq; average residence time N ([2]; brain, female): 0.532 h; absorbed dose ([2]; brain, male): 0.0732 mGy/MBq; average residence time N ([2]; brain, male): 0.430 h; effective dose (ED) ([2]; female): 21.1 µSv/MBq; maximum permissible single-study dosage ([2]; female): 365.6 MBq; absorbed dose ([2]; gallbladder wall, female): 0.0441 mGy/MBq; absorbed dose ([2]; gallbladder wall, male): 0.0484 mGy/MBq; absorbed dose ([2]; kidneys, female): 0.0454 mGy/MBq; average residence time N ([2]; kidneys, female): 0.057 h; absorbed dose ([2]; kidneys, male): 0.0478 mGy/MBq; average residence time N ([2]; kidneys, male): 0.067 h; absorbed dose ([2]; liver, female): 0.0538 mGy/MBq; average residence time N ([2]; liver, female): 0.305 h; absorbed dose ([2]; liver, male): 0.0454 mGy/MBq; average residence time N ([2]; liver, male): 0.335 h; effective dose (ED) ([2]; male): 15.6 µSv/MBq; maximum permissible single-study dosage ([2]; male): 656.0 MBq; absorbed dose ([2]; urinary bladder wall, female): 0.1368 mGy/MBq; absorbed dose ([2]; urinary bladder wall, male): 0.0762 mGy/MBq
